Measured values from ChEMBL document CHEMBL1938277, “N-acylaminophenothiazines: neuroprotective agents displaying multifunctional activities for a potential treatment of Alzheimer's disease” (Eur J Med Chem, 2011).

Key:
Acetylcholinesterase = biological target: T1, Acetylcholinesterase (Bos taurus, UniProt P23795); experiment: biochemical
T1 sequence (P23795 whole entry): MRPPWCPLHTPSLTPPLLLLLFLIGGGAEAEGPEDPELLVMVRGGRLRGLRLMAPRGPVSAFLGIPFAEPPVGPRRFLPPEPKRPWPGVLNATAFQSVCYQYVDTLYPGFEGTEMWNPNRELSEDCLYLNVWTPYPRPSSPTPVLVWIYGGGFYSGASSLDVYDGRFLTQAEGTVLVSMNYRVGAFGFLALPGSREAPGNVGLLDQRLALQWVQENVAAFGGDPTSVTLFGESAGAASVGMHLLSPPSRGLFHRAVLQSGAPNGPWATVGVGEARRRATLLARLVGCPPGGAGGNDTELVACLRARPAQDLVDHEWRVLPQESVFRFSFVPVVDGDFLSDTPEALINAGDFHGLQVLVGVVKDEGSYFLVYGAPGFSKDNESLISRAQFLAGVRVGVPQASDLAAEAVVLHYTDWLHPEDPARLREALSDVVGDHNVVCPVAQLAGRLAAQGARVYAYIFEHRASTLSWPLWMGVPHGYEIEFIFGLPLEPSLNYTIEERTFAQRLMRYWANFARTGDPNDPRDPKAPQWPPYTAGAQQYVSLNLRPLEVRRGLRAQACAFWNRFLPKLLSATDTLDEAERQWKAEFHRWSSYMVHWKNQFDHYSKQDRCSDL
Description: Inhibition of AChE in bovine erythrocytes using acetylthiocholine as substrate by Ellman method

Cholinesterase = Cholinesterase (Equus caballus, UniProt P81908)
Sequence of Cholinesterase (P81908 whole entry): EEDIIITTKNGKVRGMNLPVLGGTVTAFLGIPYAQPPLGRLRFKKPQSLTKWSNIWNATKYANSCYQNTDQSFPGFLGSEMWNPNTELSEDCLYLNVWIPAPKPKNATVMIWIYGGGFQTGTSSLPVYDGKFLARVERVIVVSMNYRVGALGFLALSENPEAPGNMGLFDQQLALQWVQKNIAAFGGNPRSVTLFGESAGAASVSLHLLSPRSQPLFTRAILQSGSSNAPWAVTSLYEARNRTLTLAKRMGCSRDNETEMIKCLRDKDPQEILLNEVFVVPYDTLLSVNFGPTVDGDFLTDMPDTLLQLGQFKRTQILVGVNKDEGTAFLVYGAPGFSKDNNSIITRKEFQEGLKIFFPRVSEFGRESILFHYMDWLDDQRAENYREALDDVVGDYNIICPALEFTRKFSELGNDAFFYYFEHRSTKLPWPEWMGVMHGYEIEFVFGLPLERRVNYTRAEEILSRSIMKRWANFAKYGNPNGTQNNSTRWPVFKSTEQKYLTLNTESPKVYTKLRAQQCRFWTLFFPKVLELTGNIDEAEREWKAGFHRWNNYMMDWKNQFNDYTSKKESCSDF
Description: Inhibition of BuChE in horse serum using butyrylthiocholine as substrate by Ellman method

SH-SY5Y [1] = experiment: Neuroprotective activity against H2O2-induced cell death in human SH-SY5Y cells assessed as LDH release at 30 uM incubated for 24 hrs before H2O2 challenge measured after 24 hrs relative to control; type: functional
SH-SY5Y [2] = experiment: Neuroprotective activity against H2O2-induced cell death in human SH-SY5Y cells assessed as LDH release at 3 uM incubated for 24 hrs before H2O2 challenge measured after 24 hrs relative to control; type: functional
SH-SY5Y [3] = experiment: Neuroprotective activity against H2O2-induced cell death in human SH-SY5Y cells assessed as LDH release at 10 uM incubated for 24 hrs before H2O2 challenge measured after 24 hrs relative to control; type: functional
in vitro = settings: PAMPA
Description: Permeability of the compound by PAMPA assay

SH-SY5Y [4] = experiment: Neuroprotective activity against H2O2-induced cell death in human SH-SY5Y cells assessed as LDH release at 1 uM incubated for 24 hrs before H2O2 challenge measured after 24 hrs relative to control; type: functional
SH-SY5Y [5] = experiment: Antioxidant activity in human SH-SY5Y cells assessed as sequestering of rotenone/oligomycin A-induced mitochondrial free radicals at 0.3 uM after 120 mins by DCFH-DA assay; type: functional
SH-SY5Y [6] = experiment: Cytotoxicity against human SH-SY5Y cells; type: cell-based
SH-SY5Y [7] = experiment: Neuroprotective activity against rotenone/oligomycin A-induced cell death in human SH-SY5Y cells assessed as LDH release at 0.3 uM treated 24 hrs before rotenone/oligomycin A challenge measured after 24 hrs relative to control; type: functional
SH-SY5Y [8] = experiment: Neuroprotective activity against amyloid beta 1 to 42-induced cell death in human SH-SY5Y cells assessed as increase in cell viability at 1 uM pre-incubated for 24 hrs before amyloid beta 1 to 42 challenge measured after 24 hrs by MTT assay relative to control; type: functional
SH-SY5Y [9] = experiment: Neuroprotective activity against FPL64176-induced toxicity in human SH-SY5Y cells assessed as increase in cell viability at 1 uM treated 24 hrs before FPL64176 challenge measured after 24 hrs by MTT assay relative to control; type: functional
SH-SY5Y [10] = experiment: Neuroprotective activity against okadaic acid-induced cell death in human SH-SY5Y cells assessed as LDH release at 1 uM treated 24 hrs before okadaic acid challenge measured after 24 hrs relative to control; type: functional
SH-SY5Y [11] = experiment: Neuroprotective activity against rotenone/oligomycin A-induced cell death in human SH-SY5Y cells assessed as LDH release at 3 uM treated 24 hrs before rotenone/oligomycin A challenge measured after 24 hrs relative to control; type: functional
SH-SY5Y [12] = experiment: Neuroprotective activity against okadaic acid-induced cell death in human SH-SY5Y cells assessed as LDH release at 0.3 uM treated 24 hrs before okadaic acid challenge measured after 24 hrs relative to control; type: functional
SH-SY5Y [13] = experiment: Neuroprotective activity against rotenone/oligomycin A-induced cell death in human SH-SY5Y cells assessed as LDH release at 1 uM after 24 hrs relative to control; type: functional
SH-SY5Y [14] = experiment: Neuroprotective activity against amyloid beta 1 to 42-induced cell death in human SH-SY5Y cells assessed as increase in cell viability at 0.3 uM pre-incubated for 24 hrs before amyloid beta 1 to 42 challenge measured after 24 hrs by MTT assay relative to control; type: functional
SH-SY5Y [15] = experiment: Neuroprotective activity against rotenone/oligomycin A-induced cell death in human SH-SY5Y cells assessed as LDH release at […] after 24 hrs relative to control; type: functional
SH-SY5Y [16] = experiment: Neuroprotective activity against amyloid beta 1 to 42-induced cell death in human SH-SY5Y cells assessed as increase in cell viability at 3 uM pre-incubated for 24 hrs before amyloid beta 1 to 42 challenge measured after 24 hrs by MTT assay relative to control; type: functional
SH-SY5Y [17] = experiment: Neuroprotective activity against rotenone/oligomycin A-induced cell death in human SH-SY5Y cells assessed as LDH release at 1 uM treated 24 hrs before rotenone/oligomycin A challenge measured after 24 hrs relative to control; type: functional
SH-SY5Y [18] = experiment: Neuroprotective activity against FPL64176-induced toxicity in human SH-SY5Y cells assessed as increase in cell viability at 10 uM treated 24 hrs before FPL64176 challenge measured after 24 hrs by MTT assay relative to control; type: functional
SH-SY5Y [19] = experiment: Neuroprotective activity against FPL64176-induced toxicity in human SH-SY5Y cells assessed as increase in cell viability at 0.3 uM treated 24 hrs before FPL64176 challenge measured after 24 hrs by MTT assay relative to control; type: functional
SH-SY5Y [20] = experiment: Neuroprotective activity against okadaic acid-induced cell death in human SH-SY5Y cells assessed as LDH release at 3 uM treated 24 hrs before okadaic acid challenge measured after 24 hrs relative to control; type: functional
SH-SY5Y [21] = experiment: Neuroprotective activity against rotenone/oligomycin A-induced cell death in human SH-SY5Y cells assessed as LDH release at 0.3 uM after 24 hrs relative to control; type: functional
SH-SY5Y [22] = experiment: Neuroprotective activity against rotenone/oligomycin A-induced cell death in human SH-SY5Y cells assessed as LDH release at 0.1 uM treated 24 hrs before rotenone/oligomycin A challenge measured after 24 hrs relative to control; type: functional
SH-SY5Y [23] = experiment: Neuroprotective activity against rotenone/oligomycin A-induced cell death in human SH-SY5Y cells assessed as LDH release at 0.1 uM after 24 hrs relative to control; type: functional
SH-SY5Y [24] = experiment: Neuroprotective activity against amyloid beta 1 to 42-induced cell death in human SH-SY5Y cells assessed as increase in cell viability at 10 nM pre-incubated for 24 hrs before amyloid beta 1 to 42 challenge measured after 24 hrs by MTT assay relative to control; type: functional
SH-SY5Y [25] = experiment: Inhibition of potassium chloride-induced cytosolic calcium level in human SH-SY5Y cells at 10 uM treated after 10 mins before potassium chloride challenge by Fluo-4/AM fluorescence assay; type: functional

| Structure (SMILES) | IC50 (Acetylcholinesterase) | IC50 (Cholinesterase) | Activity (SH-SY5Y [1]) | Activity (SH-SY5Y [2]) | Activity (SH-SY5Y [3]) | Papp (in vitro) | Activity (SH-SY5Y [4]) | further results |
| --- | --- | --- | --- | --- | --- | --- | --- | --- |
| CN1CCN(CCC(=O)NN2c3ccccc3Sc3cc(Cl)ccc32)CC1 | > 100 µM | 0.9 µM | 72.8% | 56.6% | 68.6% | 13.8 ×10⁻⁶ cm/s | 43.9% |  |
| CN(C)CC(=O)NN1c2ccccc2Sc2ccccc21 | > 100 µM | 1.7 µM | 22% | 26.3% | 38.6% | 18.3 ×10⁻⁶ cm/s | 30.5% |  |
| CN(C)CC(=O)NN1c2ccccc2Sc2ccc(Cl)cc21 | > 100 µM | 7.1 µM | 23.2% | 29.5% | 42.6% | 13.5 ×10⁻⁶ cm/s | 15.6% |  |
| CN(C)CC(=O)NN1c2ccccc2Sc2cc(Cl)ccc21 | > 100 µM | 5 µM | 9.7% | 62.7% | 28.2% | 15.5 ×10⁻⁶ cm/s | 59.8% |  |
| O=C(CN1CCCCC1)NN1c2ccccc2Sc2ccccc21 | > 100 µM | 0.4 µM | 10.1% | 26.1% | 9.7% | 16.4 ×10⁻⁶ cm/s | 27.2% |  |
| O=C(CN1CCCCC1)NN1c2ccccc2Sc2cccc(Cl)c21 | > 100 µM | 2.2 µM | 32.6% | 9.9% | 0% | 13.9 ×10⁻⁶ cm/s | 1.1% |  |
| O=C(CN1CCCCC1)NN1c2ccccc2Sc2ccc(Cl)cc21 | > 100 µM | > 100 µM | 76.4% | 80.8% | 73.8% | 9.1 ×10⁻⁶ cm/s | 66.1% |  |
| O=C(CN1CCCCC1)NN1c2ccccc2Sc2cc(Cl)ccc21 | > 100 µM | 0.7 µM | 17.8% | 55.2% | 44.9% | 14.7 ×10⁻⁶ cm/s | 25.4% |  |
| O=C(CN1CCCC1)NN1c2ccccc2Sc2ccccc21 | > 100 µM | 0.8 µM | 23.3% | 35.6% | 18.9% | 10.5 ×10⁻⁶ cm/s | 13.1% |  |
| O=C(CN1CCCC1)NN1c2ccccc2Sc2ccc(Cl)cc21 | > 100 µM | 4.3 µM | 55.6% | 48.9% | 54.8% | 11.2 ×10⁻⁶ cm/s | 17.4% |  |
| O=C(CN1CCCC1)NN1c2ccccc2Sc2cc(Cl)ccc21 | > 100 µM | 1 µM | 69.5% | 57.7% | 79.9% | 14.9 ×10⁻⁶ cm/s | 54.6% | Activity (SH-SY5Y [5]): 14.7%; Activity (SH-SY5Y [6]): Non-toxic; Activity (SH-SY5Y [7]): 55%; Activity (SH-SY5Y [8]): 81.3%; Activity (SH-SY5Y [9]): 44.5%; Activity (SH-SY5Y [10]): 32%; Activity (SH-SY5Y [11]): 58.9%; Activity (SH-SY5Y [12]): 28.3%; Activity (SH-SY5Y [13]): 44.1%; Activity (SH-SY5Y [14]): 91.3%; Activity (SH-SY5Y [15]): 44.3%; Activity (SH-SY5Y [16]): 13.6%; Activity (SH-SY5Y [17]): 51.8%; Activity (SH-SY5Y [18]): 36.3%; Activity (SH-SY5Y [19]): 39.8%; Activity (SH-SY5Y [20]): 29%; Activity (SH-SY5Y [21]): 28.6% |
| CC(=O)NN1c2ccccc2Sc2cc(Cl)ccc21 | > 100 µM | > 100 µM | 21.2% | 52.2% | 37.2% | 9.8 ×10⁻⁶ cm/s | 40.3% |  |
| O=C(CCN1CCCC1)NN1c2ccccc2Sc2ccccc21 | > 100 µM | 1.4 µM | 72.5% | 81.4% | 88% | 17.3 ×10⁻⁶ cm/s | 90.1% | Activity (SH-SY5Y [5]): 23.8%; Activity (SH-SY5Y [6]): Non-toxic; Activity (SH-SY5Y [7]): 42.4%; Activity (SH-SY5Y [22]): 58.8%; Activity (SH-SY5Y [13]): 52.6%; Activity (SH-SY5Y [17]): 16.5%; Activity (SH-SY5Y [23]): 66.1%; Activity (SH-SY5Y [21]): 63.7% |
| O=C(CCN1CCCC1)NN1c2ccccc2Sc2cc(Cl)ccc21 | > 100 µM | 3 µM | 49% | 57.2% | 29.4% | 16.4 ×10⁻⁶ cm/s | 34.4% |  |
| COc1ccc2c(c1)Sc1ccccc1N2NC(=O)CCN1CCCC1 | > 100 µM | 0.8 µM | 0% | 11.8% | 0% | 8.7 ×10⁻⁶ cm/s | 17.8% |  |
| CN1CCN(CCC(=O)NN2c3ccccc3Sc3ccccc32)CC1 | > 100 µM | 1.3 µM | 6.3% | 34.5% | 22.8% | 17 ×10⁻⁶ cm/s | 82.9% |  |
| COc1ccc2c(c1)Sc1ccccc1N2NC(=O)CCN1CCN(C)CC1 | > 100 µM | 2 µM | 55.1% | 42.1% | 66.5% | 16.8 ×10⁻⁶ cm/s | 49.5% | Activity (SH-SY5Y [5]): 24.2%; Activity (SH-SY5Y [6]): Non-toxic; Activity (SH-SY5Y [7]): 49.4%; Activity (SH-SY5Y [22]): 37.2%; Activity (SH-SY5Y [13]): 65.4%; Activity (SH-SY5Y [17]): 50.8%; Activity (SH-SY5Y [23]): 66.3%; Activity (SH-SY5Y [21]): 57.9% |
| CN1CCN(CCC(=O)NN2c3ccccc3Sc3cc([N+](=O)[O-])ccc32)CC1 | > 100 µM | 1.5 µM | 31.7% | 46.5% | 46.2% | 14.6 ×10⁻⁶ cm/s | 41.3% |  |
| COc1ccc2c3c1O[C@H]1C[C@@H](O)C=C[C@@]31CCN(C)C2 [GALANTAMINE] |  |  |  |  |  |  |  | Activity (SH-SY5Y [12]): 36% |
| COc1ccc2[nH]cc(CCNC(C)=O)c2c1 [MELATONIN] |  |  |  |  |  |  |  | Activity (SH-SY5Y [24]): 72% |
| COC(=O)C1=C(C)NC(C)=C(C(=O)OC)C1c1ccccc1[N+](=O)[O-] [NIFEDIPINE] |  |  |  |  |  |  |  | inhibition at 10 µM (SH-SY5Y [25]): 45% |
| Cc1c(C)c2c(c(C)c1O)CCC(C)(C(=O)O)O2 (stereo unspecified) [TROLOX] |  |  | 57.7% |  |  |  |  | Activity (SH-SY5Y [5]): 27.8%; Activity (SH-SY5Y [11]): 65.1%; Activity (SH-SY5Y [15]): 63.7% |
